Values after ≈ are worked out from the molar mass of the structure shown. Active and inactive are the calls of the source. The calls are words filed in the database; no cut-off is given here.
Tests used:
[1] = Growth inhibition of mouse 3T3 cells; assay type: cell-based; conditions: NIH3T3 cells
Mus musculus = species on record: Mus musculus; assay: Cicatrizant activity in mouse assessed as wound healing by tensile strength method; assay type: functional

SMILES | GI50 [1] [µg/mL] | ED50 (Mus musculus)
CC(C)=CCC[C@](C)(O)[C@H]1CC=C(C)CC1 | 8 (≈ 36 µM) | –
C=CC(C)(O)CC/C=C(\C)CCC=C(C)C (stereo not drawn) | – | inactive
CC(C)=CCC/C(C)=C/CC/C(C)=C/CO | – | inactive
CC1=CC[C@@H](C(C)(C)O)CC1 [ALPHA-TERPINEOL] | 17 (≈ 110 µM) | 240 mg/kg
CC(C)=CCC[C@](C)(O)[C@@H]1CC=C(C)CC1 [LEVOMENOL] | 84 (≈ 378 µM) | 228 mg/kg
COc1ccc2c(=O)oc3c(OC)cc(CCN(C)C)c4c(=O)oc1c2c34 [TASPINE] | – | 15 mg/kg

— ChEMBL document CHEMBL1156368, “(+)-epi-Alpha-bisabolol [correction of bisbolol] is the wound-healing principle of Peperomia galioides: investigation of the in vivo wound-healing activity of related terpenoids” (J Nat Prod, 2001)
